According to PMC7827014, “Synthetic Transition from Thiourea-Based Compounds to Tetrazole Derivatives: Structure and Biological Evaluation of Synthesized New N-(Furan-2-ylmethyl)-1H-tetrazol-5-amine Derivatives” (Molecules, 2021):
≈ marks a conversion by molar mass, not a printed value.

tested on: M. tuberculosis INH resistant (Spec. 210); test: In vitro antitubercular MIC; type: cell-based; details: Mycobacterium tuberculosis, read-out: Minimal inhibitory concentration

Q: For `Fc1ccc(-n2nnnc2NCc2ccco2)cc1` [Compound 1, 1-(4-fluorophenyl)-N-(furan-2-ylmethyl)-1H-tetrazol-5-amine], which MIC is on record?
A: 256 µg/mL (≈ 987 µM)

Q: For `Cc1ccc(Cl)cc1-n1nnnc1NCc1ccco1` [Compound 2, 1-(5-chloro-2-methylphenyl)-N-(furan-2-ylmethyl)-1H-tetrazol-5-amine], which MIC is on record?
A: 512 µg/mL (≈ 1770 µM)

Q: `Ic1ccc(-n2nnnc2NCc2ccco2)cc1` [Compound 3, N-(furan-2-ylmethyl)-1-(4-iodophenyl)-1H-tetrazol-5-amine] was tested. Which MIC did it give?
A: 512 µg/mL (≈ 1390 µM)

Q: How did the MIC turn out when `Clc1cccc(-n2nnnc2NCc2ccco2)c1` [Compound 4, 1-(3-chlorophenyl)-N-(furan-2-ylmethyl)-1H-tetrazol-5-amine] was run?
A: 256 µg/mL (≈ 929 µM)

Q: Which MIC does the source give for `Clc1ccc(-n2nnnc2NCc2ccco2)cc1Cl` [Compound 5, 1-(3,4-dichlorophenyl)-N-(furan-2-ylmethyl)-1H-tetrazol-5-amine] here?
A: > 512 µg/mL

Q: `Fc1ccccc1-n1nnnc1NCc1ccco1` [Compound 6, 1-(2-fluorophenyl)-N-(furan-2-ylmethyl)-1H-tetrazol-5-amine] was tested. Which MIC did it give?
A: 256 µg/mL (≈ 987 µM)

Q: For `Brc1cccc(-n2nnnc2NCc2ccco2)c1` [Compound 7, 1-(3-bromophenyl)-N-(furan-2-ylmethyl)-1H-tetrazol-5-amine], which MIC is on record?
A: 256 µg/mL (≈ 800 µM)

Q: `Clc1ccc(-n2nnnc2NCc2ccco2)cc1` [Compound 8, 1-(4-chlorophenyl)-N-(furan-2-ylmethyl)-1H-tetrazol-5-amine] was tested. Which MIC did it give?
A: 256 µg/mL (≈ 929 µM)

Q: For `Fc1cccc(-n2nnnc2NCc2ccco2)c1` [Compound 9, 1-(3-fluorophenyl)-N-(furan-2-ylmethyl)-1H-tetrazol-5-amine], which MIC is on record?
A: 256 µg/mL (≈ 987 µM)

Q: For `Brc1ccc(-n2nnnc2NCc2ccco2)cc1` [Compound 10, 1-(4-bromophenyl)-N-(furan-2-ylmethyl)-1H-tetrazol-5-amine], which MIC is on record?
A: 512 µg/mL (≈ 1600 µM)

Q: For `Clc1ccccc1-n1nnnc1NCc1ccco1` [Compound 11, 1-(2-chlorophenyl)-N-(furan-2-ylmethyl)-1H-tetrazol-5-amine], which MIC is on record?
A: 256 µg/mL (≈ 929 µM)

Q: `Brc1ccccc1-n1nnnc1NCc1ccco1` [Compound 12, 1-(2-bromophenyl)-N-(furan-2-ylmethyl)-1H-tetrazol-5-amine] was tested. Which MIC did it give?
A: 256 µg/mL (≈ 800 µM)

Q: Which MIC does the source give for `NNC(=O)c1ccncc1` [INH, isoniazid, reference compound] here?
A: 2 µg/mL (≈ 14.6 µM)
